From patent US20200277262A1, “N-(CYANO-SUBSTITUTED BENZYL OR PYRIDINYLMETHYL)-3-HYDROXYPICOLINAMIDE DERIVATIVES” (Takeda Pharmaceutical Company Limited, priority 2017, published 2020)

Key:
[1] = target: T1, PHD2 enzyme (residues 181-417) (Homo sapiens, UniProt Q9GZT9); experiment: Inhibition of PHD2 Enzyme (LC/MS detection of hydroxylated peptide); assay type: biochemical; conditions: 5 nM enzyme, 1 μM biotin-labeled peptide, 2 μM 2-oxoglutarate, 60 min pre-incubation, pH 7.3; -log(IC50), IC50 molar; read-out: Inhibition of PHD2 (pIC50) (converted)
T1 construct: The IC50 values for the PHD2 enzyme (residues 181-417) were determined
T1 sequence (Q9GZT9 181-417): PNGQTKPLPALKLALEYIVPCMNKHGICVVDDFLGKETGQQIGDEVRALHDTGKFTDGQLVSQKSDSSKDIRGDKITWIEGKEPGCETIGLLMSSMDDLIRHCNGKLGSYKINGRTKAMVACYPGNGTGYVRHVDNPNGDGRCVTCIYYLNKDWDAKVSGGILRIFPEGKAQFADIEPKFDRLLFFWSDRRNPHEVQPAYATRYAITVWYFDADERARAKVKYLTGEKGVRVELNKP
Experimental: The IC50 values for the PHD2 enzyme (residues 181-417) were determined by mixing increasing amounts of an inhibitor with a fixed amount of enzyme (5 nM, final concentration) and Biotin-labeled peptide (Biotin-Asp-Leu-Glu-Met-Leu-Ala-Pro-Tyr-Ile-Pro-Met-Asp-Asp-Asp-Phe-Gln-Leu, 1 μM final concentration) and 2-oxyglutarate (2 μM final concentration) in 50 mM HEPES, 50 mM KCl, 0.5 mM TCEP, 2 μM FeCl2, 0.1 mg/mL BSA, at pH 7.3. The reaction was conducted by pre-incubating the enzyme in the presence of the inhibitor for 60 minutes at room temperature. The activity of the free enzyme was measured by adding the peptide, the 2-oxoglutarate, and ascorbic acid (1 mM final concentration). The enzymatic activity was quenched after 60 minutes by adding an excess of a tight binding inhibitor to the assay mixture. The amount of product released was measured by using a LC/MS system (Agilent HPLC with Applied Biosystems API3000 Mass Spectrometer). Data were analyzed using the classical isotherm equation for the determination of IC50 values and are reported in Table 1, below, as pIC50, i.e., −log(IC50), where IC50 is molar concentration of the test compound at 50% inhibition.
(§1) Table 1 lists biological data for some of the compounds shown in the examples, where larger pIC50 and pEC50 values represent higher potency or activity, respectively. The IC50 data (reported in Table 1 as pIC50) were obtained using the enzyme-based assay described in the specification under the heading “Inhibition of PHD2 Enzyme.” The EC50 data (reported in Table 1 as pEC50) were obtained using the cell-based assay described in the specification under the heading “Cell-based HIF-α Stabilization Assay.”

[2] = system: HIF1a protein content in H9c2 rat cardiomyocytes; experiment: Cell-based HIF-α Stabilization Assay (HIF1a ELISA); conditions: H9c2 cells, 24 hours compound incubation, concentration giving 50% of desferrioxamine maximum response, -log(EC50), EC50 molar, read-out: Stabilization of HIF-α (pEC50) (converted)
Experimental: H9c2 rat cardiomyocytes (ATCC) were seeded in 96-well tissue culture microplates and cultured for 24 hours prior to addition of compounds (11 point range of serial dilutions) or DMSO vehicle. After 24 hours of compound incubation, whole cell extracts were prepared by lysing cells in cell extraction buffer containing protease and phosphatase inhibitors (Meso-Scale Discovery). HIF1a protein content was assessed by ELISA (Meso-Scale Discovery) and expressed as % relative to the maximum response obtained from the positive control, desferrioxamine (Sigma-Aldrich). EC50 for each compound was obtained by curve-fitting using XLfit4 MicroSoft Excel curve-fitting software to calculate the compound concentration that results in 50% of the desferrioxamine maximum response.
as §1

`N#Cc1ccc(CNC(=O)c2ncccc2O)c(F)c1` [Example 5, N-(4-cyano-2-fluorobenzyl)-3-hydroxypicolinamide] showed an IC50 [1] of 0.0316 µM and an EC50 [2] of 7.94 µM.

With `N#Cc1ccc2c(c1)OCC2NC(=O)c1ncccc1O` (stereo not drawn) [Example 22, N-(6-cyano-2,3-dihydrobenzofuran-3-yl)-3-hydroxypicolinamide] the IC50 [1] was 0.0398 µM and the EC50 [2] was 7.94 µM.

`Cc1cc(C#N)c(F)cc1CNC(=O)c1ncccc1O` [Example 13, N-(4-cyano-5-fluoro-2-methylbenzyl)-3-hydroxypicolinamide] was tested, and the IC50 [1] was 0.0158 µM and the EC50 [2] was 10 µM.

`N#Cc1ccc(CNC(=O)c2ncccc2O)c(Cl)c1` [Example 15, N-(2-chloro-4-cyanobenzyl)-3-hydroxypicolinamide] showed an IC50 [1] of 0.0251 µM and an EC50 [2] of 12.6 µM.

Work on `CC(NC(=O)c1ncccc1O)c1ccc(C#N)cc1` (stereo not drawn) [Example 39, N-(1-(4-cyanophenyl)ethyl)-3-hydroxypicolinamide] yielded an IC50 [1] of 1.58 µM and an EC50 [2] of 50.1 µM.

With `Cc1cc(C#N)cc(C)c1CNC(=O)c1ncc(F)cc1O` [Example 27, N-(4-cyano-2,6-dimethylbenzyl)-5-fluoro-3-hydroxypicolinamide] the IC50 [1] was 0.0158 µM and the EC50 [2] was 6.31 µM.

Compound `Cc1cc(C#N)cc(C)c1CNC(=O)c1ncc(N2CCN(CC(F)F)CC2)cc1O` [Example 42, N-(4-cyano-2,6-dimethylbenzyl)-5-(4-(2,2-difluoroethyl)piperazin-1-yl)-3-hydroxypicolinamide] has an IC50 [1] of 0.0398 µM and an EC50 [2] of 3.98 µM.

Work on `Cc1cnc(C(=O)NCc2c(C)cc(C#N)cc2C)c(O)c1` [Example 11, N-(4-cyano-2,6-dimethylbenzyl)-3-hydroxy-5-methylpicolinamide] yielded an IC50 [1] of 0.0316 µM and an EC50 [2] of 7.94 µM.

In the case of `N#Cc1ccc(CNC(=O)c2ncc(C#N)cc2O)cc1` [Example 16, 5-cyano-N-(4-cyanobenzyl)-3-hydroxypicolinamide], the IC50 [1] was 0.251 µM and the EC50 [2] was 6.31 µM.

`COc1cnc(C(=O)N[C@@H]2CCc3cc(C#N)ccc32)c(O)c1` [Example 33, (R)—N-(5-cyano-2,3-dihydro-1H-inden-1-yl)-3-hydroxy-5-methoxypicolinamide] gave an IC50 [1] of 0.00794 µM and an EC50 [2] of 6.31 µM.

`N#Cc1ccc(CNC(=O)c2ncccc2O)nc1` [Example 24, N-((5-cyanopyridin-2-yl)methyl)-3-hydroxypicolinamide] was tested, and the IC50 [1] was 0.398 µM and the EC50 [2] was 7.94 µM.

Work on `N#Cc1ccc2c(c1)CC[C@H]2NC(=O)c1ncccc1O` [Example 19, (R)—N-(5-cyano-2,3-dihydro-1H-inden-1-yl)-3-hydroxypicolinamide] yielded an IC50 [1] of 0.01 µM and an EC50 [2] of 6.31 µM.

Compound `Cc1cc(C#N)ccc1CNC(=O)c1ncc(F)cc1O` [Example 35, N-(4-cyano-2-methylbenzyl)-5-fluoro-3-hydroxypicolinamide] has an IC50 [1] of 0.02 µM and an EC50 [2] of 25.1 µM.

`CCN1CCN(C(=O)c2cnc(C(=O)NCc3ccc(C#N)cc3C)c(O)c2)CC1` [Example 8, N-(4-cyano-2-methylbenzyl)-5-(4-ethylpiperazine-1-carbonyl)-3-hydroxypicolinamide] was tested, and the IC50 [1] was 0.1 µM and the EC50 [2] was 12.6 µM.

In the case of `N#Cc1ccc(CNC(=O)c2ncccc2O)c(C(F)(F)F)c1` [Example 7, N-(4-cyano-2-(trifluoromethyl)benzyl)-3-hydroxypicolinamide], the IC50 [1] was 3.98 µM.

In the case of `N#Cc1ccc2c(c1)CC[C@H]2NC(=O)c1ncc(C(F)(F)F)cc1O` [Example 32, (R)—N-(5-cyano-2,3-dihydro-1H-inden-1-yl)-3-hydroxy-5-(trifluoromethyl)picolinamide], the IC50 [1] was 0.126 µM and the EC50 [2] was 39.8 µM.

In the case of `Cc1cc(C#N)cc(C)c1CNC(=O)c1ncc(C(F)(F)F)cc1O` [Example 28, N-(4-cyano-2,6-dimethylbenzyl)-3-hydroxy-5-(trifluoromethyl)picolinamide], the IC50 [1] was 0.0501 µM and the EC50 [2] was 15.8 µM.

In the case of `N#Cc1cccc(CNC(=O)c2ncccc2O)c1` [Example 2, N-(3-cyanobenzyl)-3-hydroxypicolinamide, reference compound], the IC50 [1] was 3.16 µM.

Work on `N#Cc1ccc2c(c1)CCCC2NC(=O)c1ncccc1O` (stereo not drawn) [Example 18, N-(6-cyano-1,2,3,4-tetrahydronaphthalen-1-yl)-3-hydroxypicolinamide] yielded an IC50 [1] of 1.26 µM and an EC50 [2] of 50.1 µM.

`Cc1cc(C#N)cc(C)c1CNC(=O)c1ncc(Cl)cc1O` [Example 25, 5-chloro-N-(4-cyano-2,6-dimethylbenzyl)-3-hydroxypicolinamide] showed an IC50 [1] of 0.02 µM and an EC50 [2] of 12.6 µM.

`Cc1cc(C#N)ccc1CNC(=O)c1ncccc1O` [Example 4, N-(4-cyano-2-methylbenzyl)-3-hydroxypicolinamide] was tested, and the IC50 [1] was 0.02 µM and the EC50 [2] was 7.94 µM.

In the case of `COc1cnc(C(=O)NCc2ccc(C#N)cc2C)c(O)c1` [Example 38, N-(4-cyano-2-methylbenzyl)-3-hydroxy-5-methoxypicolinamide], the IC50 [1] was 0.01 µM and the EC50 [2] was 7.94 µM.

`N#Cc1cnc(C(=O)N[C@@H]2CCc3cc(C#N)ccc32)c(O)c1` [Example 34, (R)-5-cyano-N-(5-cyano-2,3-dihydro-1H-inden-1-yl)-3-hydroxypicolinamide] gave an IC50 [1] of 0.0398 µM and an EC50 [2] of 12.6 µM.

Compound `N#Cc1ccc(CNC(=O)c2ncccc2O)cn1` [Example 3, N-((6-cyanopyridin-3-yl)methyl)-3-hydroxypicolinamide] has an IC50 [1] of 1 µM.

In the case of `N#Cc1ccc(CNC(=O)c2ncccc2O)cc1` [Example 1, N-(4-cyanobenzyl)-3-hydroxypicolinamide], the IC50 [1] was 0.0631 µM and the EC50 [2] was 10 µM.

`N#Cc1ccc2c(c1)CC[C@H]2NC(=O)c1ncc(Cl)cc1O` [Example 31, (R)-5-chloro-N-(5-cyano-2,3-dihydro-1H-inden-1-yl)-3-hydroxypicolinamide] showed an IC50 [1] of 0.0316 µM and an EC50 [2] of 25.1 µM.

In the case of `Cc1cnc(C(=O)N[C@@H]2CCc3cc(C#N)ccc32)c(O)c1` [Example 23, (R)—N-(5-cyano-2,3-dihydro-1H-inden-1-yl)-3-hydroxy-5-methylpicolinamide], the IC50 [1] was 0.0316 µM and the EC50 [2] was 7.94 µM.

`CCN1CCN(c2cnc(C(=O)NCc3c(C)cc(C#N)cc3C)c(O)c2)CC1` [Example 41, N-(4-cyano-2,6-dimethylbenzyl)-5-(4-ethylpiperazin-1-yl)-3-hydroxypicolinamide] gave an IC50 [1] of 0.0794 µM and an EC50 [2] of 6.31 µM.

For `N#Cc1ccc(CNC(=O)c2ncccc2O)cc1F` [Example 6, N-(4-cyano-3-fluorobenzyl)-3-hydroxypicolinamide], the IC50 [1] was 0.0316 µM and the EC50 [2] was 6.31 µM.

With `N#Cc1ccc2c(c1)CC[C@H]2NC(=O)c1ncc(F)cc1O` [Example 30, (R)—N-(5-cyano-2,3-dihydro-1H-inden-1-yl)-5-fluoro-3-hydroxypicolinamide] the IC50 [1] was 0.0158 µM and the EC50 [2] was 15.8 µM.

For `Cc1cc(C#N)ccc1CNC(=O)c1ncc(C(F)(F)F)cc1O` [Example 37, N-(4-cyano-2-methylbenzyl)-3-hydroxy-5-(trifluoromethyl)picolinamide], the IC50 [1] was 0.251 µM.

`Cc1cc(C#N)ccc1CNC(=O)c1ncc(Cl)cc1O` [Example 36, 5-chloro-N-(4-cyano-2-methylbenzyl)-3-hydroxypicolinamide] gave an IC50 [1] of 0.0398 µM and an EC50 [2] of 25.1 µM.

`Cc1cc(C#N)cc(C)c1CNC(=O)c1ncc(C#N)cc1O` [Example 26, 5-cyano-N-(4-cyano-2,6-dimethylbenzyl)-3-hydroxypicolinamide] was tested, and the IC50 [1] was 0.0251 µM and the EC50 [2] was 12.6 µM.

Work on `COc1cnc(C(=O)NCc2c(C)cc(C#N)cc2C)c(O)c1` [Example 29, N-(4-cyano-2,6-dimethylbenzyl)-3-hydroxy-5-methoxypicolinamide] yielded an IC50 [1] of 0.01 µM and an EC50 [2] of 1.58 µM.

In the case of `Cc1c(CNC(=O)c2ncccc2O)ccc(C#N)c1F` [Example 14, N-(4-cyano-3-fluoro-2-methylbenzyl)-3-hydroxypicolinamide], the IC50 [1] was 0.0126 µM and the EC50 [2] was 12.6 µM.

In the case of `Cc1cc(C#N)ccc1CNC(=O)c1ncc(C#N)cc1O` [Example 17, 5-cyano-N-(4-cyano-2-methylbenzyl)-3-hydroxypicolinamide], the IC50 [1] was 0.316 µM and the EC50 [2] was 50.1 µM.

For `N#Cc1ccc2c(c1)CC[C@H]2NC(=O)c1ncccc1O` [Example 20, (R)—N-(5-cyano-2,3-dihydro-1H-inden-1-yl)-3-hydroxypicolinamide], the IC50 [1] was 0.0126 µM.
